In ChEMBL document CHEMBL5465560, “Selectivity Literature for EUbOPEN Chemogenomic Library” (2024):

Key:
[1] = target: Thyrotropin-releasing hormone receptor (Homo sapiens) (UniProt P34981); experiment: Selectivity interaction (Eurofins CEREP Diversity Profile (receptors and ion channels)) EUB0000279b TRH; details: at 10 µM
[2] = target: Death-associated protein kinase 1 (Homo sapiens, UniProt P53355); experiment: Selectivity interaction (Ambit KINOMEscan and KiNATiv profiling in Jurkat cells) EUB0000090b DAPK1; type: cell-based; details: at 1 µM
Chain of Death-associated protein kinase 1 (P53355 whole entry, looked up): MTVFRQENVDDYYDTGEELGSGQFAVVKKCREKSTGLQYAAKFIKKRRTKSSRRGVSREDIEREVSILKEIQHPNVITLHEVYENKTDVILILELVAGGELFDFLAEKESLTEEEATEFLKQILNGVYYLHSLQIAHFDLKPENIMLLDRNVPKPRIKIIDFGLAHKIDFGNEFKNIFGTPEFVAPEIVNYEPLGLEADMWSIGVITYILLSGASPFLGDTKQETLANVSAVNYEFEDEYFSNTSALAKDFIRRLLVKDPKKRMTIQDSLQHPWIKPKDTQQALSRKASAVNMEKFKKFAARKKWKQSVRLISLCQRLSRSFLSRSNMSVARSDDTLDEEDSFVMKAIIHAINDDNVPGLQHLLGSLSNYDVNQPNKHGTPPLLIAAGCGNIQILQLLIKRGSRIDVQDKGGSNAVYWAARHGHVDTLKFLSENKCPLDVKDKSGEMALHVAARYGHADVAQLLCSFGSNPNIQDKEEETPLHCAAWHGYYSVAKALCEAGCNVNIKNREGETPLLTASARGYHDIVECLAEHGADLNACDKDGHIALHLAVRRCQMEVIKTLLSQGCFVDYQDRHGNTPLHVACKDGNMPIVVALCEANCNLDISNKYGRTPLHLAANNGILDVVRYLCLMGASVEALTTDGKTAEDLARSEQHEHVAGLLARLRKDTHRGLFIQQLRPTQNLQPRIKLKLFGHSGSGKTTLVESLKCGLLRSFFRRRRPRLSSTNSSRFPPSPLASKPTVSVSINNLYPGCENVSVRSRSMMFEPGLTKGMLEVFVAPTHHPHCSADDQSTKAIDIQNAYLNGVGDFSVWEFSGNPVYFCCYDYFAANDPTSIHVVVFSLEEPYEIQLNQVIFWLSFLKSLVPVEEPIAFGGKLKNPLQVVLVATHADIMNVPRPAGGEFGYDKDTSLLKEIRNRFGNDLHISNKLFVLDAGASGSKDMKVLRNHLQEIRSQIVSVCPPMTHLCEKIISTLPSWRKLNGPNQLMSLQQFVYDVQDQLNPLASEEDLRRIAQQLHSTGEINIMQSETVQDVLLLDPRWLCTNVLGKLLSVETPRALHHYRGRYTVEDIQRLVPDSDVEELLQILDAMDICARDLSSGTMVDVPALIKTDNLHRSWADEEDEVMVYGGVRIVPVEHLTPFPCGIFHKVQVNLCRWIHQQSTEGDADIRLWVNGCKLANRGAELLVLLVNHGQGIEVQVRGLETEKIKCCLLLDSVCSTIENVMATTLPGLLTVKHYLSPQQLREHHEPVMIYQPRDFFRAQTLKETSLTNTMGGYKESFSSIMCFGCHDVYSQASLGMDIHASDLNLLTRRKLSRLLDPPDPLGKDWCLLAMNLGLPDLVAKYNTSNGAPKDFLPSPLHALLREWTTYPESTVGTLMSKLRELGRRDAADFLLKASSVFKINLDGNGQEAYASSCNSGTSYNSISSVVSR

[3] = target: Tyrosine-protein kinase Blk (Homo sapiens) (UniProt P51451); experiment: Selectivity interaction (Ambit KINOMEscan and KiNATiv profiling in Jurkat cells) EUB0000090b BLK; type: cell-based; details: at 1 µM
Chain of Tyrosine-protein kinase Blk (Homo sapiens) (P51451 2-505 limits assumed): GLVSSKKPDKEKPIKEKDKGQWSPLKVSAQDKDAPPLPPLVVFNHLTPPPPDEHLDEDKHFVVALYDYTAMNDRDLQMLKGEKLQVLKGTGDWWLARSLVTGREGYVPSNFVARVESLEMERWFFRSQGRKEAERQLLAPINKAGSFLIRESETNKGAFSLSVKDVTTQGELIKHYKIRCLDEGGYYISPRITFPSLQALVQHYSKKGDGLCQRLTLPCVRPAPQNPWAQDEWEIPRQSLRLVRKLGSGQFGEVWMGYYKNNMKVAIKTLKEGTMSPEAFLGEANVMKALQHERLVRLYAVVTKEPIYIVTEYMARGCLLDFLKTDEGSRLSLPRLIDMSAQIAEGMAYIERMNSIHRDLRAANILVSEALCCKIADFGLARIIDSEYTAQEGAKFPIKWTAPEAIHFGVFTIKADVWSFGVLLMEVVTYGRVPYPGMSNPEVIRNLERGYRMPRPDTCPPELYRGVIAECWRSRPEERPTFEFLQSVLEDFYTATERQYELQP

[4] = target: Serine/threonine-protein kinase WNK2 (Homo sapiens) (UniProt Q9Y3S1); experiment: Selectivity interaction (KinomeScan (DiscoverX)) EUB0001079a WNK2; details: at 1 µM
[5] = target: Phosphatidylinositol 4-phosphate 3-kinase C2 domain-containing subunit beta (Homo sapiens) (UniProt O00750); experiment: Selectivity interaction (KinomeScan (DiscoverX)) EUB0000618a PIK3C2B; details: at 10 µM
[6] = target: T1, NUAK family SNF1-like kinase 2 (Homo sapiens) (UniProt Q9H093); experiment: Selectivity interaction (ActivX KiNativ screen (ex vivo kinase selectivity in human PBMCs)) EUB0001619a NUAK2; type: cell-based; details: PBMC, at 1 µM
T1 sequence (whole entry): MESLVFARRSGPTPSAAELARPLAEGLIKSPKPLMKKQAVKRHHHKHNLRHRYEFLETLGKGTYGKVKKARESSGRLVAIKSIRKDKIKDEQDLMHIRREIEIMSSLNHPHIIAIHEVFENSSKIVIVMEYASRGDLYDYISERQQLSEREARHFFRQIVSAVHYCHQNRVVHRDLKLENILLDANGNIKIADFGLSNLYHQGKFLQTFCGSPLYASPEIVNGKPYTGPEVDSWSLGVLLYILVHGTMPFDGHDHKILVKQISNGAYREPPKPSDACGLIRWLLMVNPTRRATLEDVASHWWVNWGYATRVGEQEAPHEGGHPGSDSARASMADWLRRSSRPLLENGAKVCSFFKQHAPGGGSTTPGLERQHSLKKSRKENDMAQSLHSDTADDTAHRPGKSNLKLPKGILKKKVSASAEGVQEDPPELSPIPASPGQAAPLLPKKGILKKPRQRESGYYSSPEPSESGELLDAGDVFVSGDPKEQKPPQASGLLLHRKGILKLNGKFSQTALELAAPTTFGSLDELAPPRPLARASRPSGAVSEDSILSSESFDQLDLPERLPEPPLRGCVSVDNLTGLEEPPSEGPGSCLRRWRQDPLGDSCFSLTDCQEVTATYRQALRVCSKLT

[7] = target: T2, Ephrin type-A receptor 8 (Homo sapiens) (UniProt P29322); experiment: Selectivity interaction (KinomeScan (DiscoverX)) EUB0000595a EPHA8; details: at 10 µM
T2 sequence (whole entry): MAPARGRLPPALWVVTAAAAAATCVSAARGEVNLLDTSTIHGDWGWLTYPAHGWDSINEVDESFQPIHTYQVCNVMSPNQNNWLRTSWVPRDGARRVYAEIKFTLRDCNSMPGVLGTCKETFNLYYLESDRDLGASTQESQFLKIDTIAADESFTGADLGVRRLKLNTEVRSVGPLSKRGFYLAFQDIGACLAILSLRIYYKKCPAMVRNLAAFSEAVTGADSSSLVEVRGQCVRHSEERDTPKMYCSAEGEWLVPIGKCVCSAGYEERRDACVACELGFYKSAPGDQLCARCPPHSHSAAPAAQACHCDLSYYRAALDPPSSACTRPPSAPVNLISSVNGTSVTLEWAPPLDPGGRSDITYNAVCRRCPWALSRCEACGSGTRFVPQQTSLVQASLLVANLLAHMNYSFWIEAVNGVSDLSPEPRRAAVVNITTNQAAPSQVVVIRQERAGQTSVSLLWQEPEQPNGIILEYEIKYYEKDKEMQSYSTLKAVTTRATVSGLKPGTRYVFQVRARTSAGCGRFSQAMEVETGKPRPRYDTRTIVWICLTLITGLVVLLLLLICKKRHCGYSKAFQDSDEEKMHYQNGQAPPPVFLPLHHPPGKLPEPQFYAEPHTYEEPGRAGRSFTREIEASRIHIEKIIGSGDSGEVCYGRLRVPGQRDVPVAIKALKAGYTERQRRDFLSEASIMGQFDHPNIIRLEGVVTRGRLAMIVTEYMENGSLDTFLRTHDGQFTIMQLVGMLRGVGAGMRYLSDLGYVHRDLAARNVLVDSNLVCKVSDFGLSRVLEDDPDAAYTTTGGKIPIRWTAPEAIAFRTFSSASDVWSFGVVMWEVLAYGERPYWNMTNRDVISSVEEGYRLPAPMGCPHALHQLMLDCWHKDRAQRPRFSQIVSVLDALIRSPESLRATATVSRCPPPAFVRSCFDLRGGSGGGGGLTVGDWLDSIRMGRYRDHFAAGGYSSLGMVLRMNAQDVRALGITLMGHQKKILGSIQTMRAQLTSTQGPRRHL

[8] = target: Protein kinase C theta type (Homo sapiens, UniProt Q04759); experiment: Selectivity interaction (KinomeScan (DiscoverX)) EUB0000595a PRKCQ; details: at 10 µM
Chain of Protein kinase C theta type (Q04759 whole entry, looked up): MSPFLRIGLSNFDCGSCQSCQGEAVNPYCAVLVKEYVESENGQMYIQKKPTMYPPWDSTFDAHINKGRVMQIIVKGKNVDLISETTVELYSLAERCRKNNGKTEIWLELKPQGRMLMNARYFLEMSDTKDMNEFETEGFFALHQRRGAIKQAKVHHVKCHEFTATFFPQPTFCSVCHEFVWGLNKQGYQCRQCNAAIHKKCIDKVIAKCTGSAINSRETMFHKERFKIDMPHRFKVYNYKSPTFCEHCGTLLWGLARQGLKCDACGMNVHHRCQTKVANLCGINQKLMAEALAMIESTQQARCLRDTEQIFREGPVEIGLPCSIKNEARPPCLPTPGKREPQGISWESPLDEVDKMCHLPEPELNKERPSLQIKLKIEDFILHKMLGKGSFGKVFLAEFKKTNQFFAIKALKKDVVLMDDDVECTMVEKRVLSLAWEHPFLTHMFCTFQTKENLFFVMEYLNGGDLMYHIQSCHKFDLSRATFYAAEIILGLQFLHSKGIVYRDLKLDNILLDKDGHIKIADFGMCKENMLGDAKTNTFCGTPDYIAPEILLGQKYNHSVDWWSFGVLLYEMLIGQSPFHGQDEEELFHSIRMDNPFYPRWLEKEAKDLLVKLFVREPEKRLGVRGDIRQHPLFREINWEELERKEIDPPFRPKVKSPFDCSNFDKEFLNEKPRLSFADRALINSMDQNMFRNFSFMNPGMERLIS

[9] = system: Angiopoietin-1 receptor (Homo sapiens), Q02763 [R849W]; experiment: (§1) Selectivity interaction (LanthaScreen Eu Kinase Binding Assay) EUB0001632a TEK; details: at 10 µM
Chain of Angiopoietin-1 receptor (Homo sapiens), Q02763 [R849W] (Q02763 whole entry R849W): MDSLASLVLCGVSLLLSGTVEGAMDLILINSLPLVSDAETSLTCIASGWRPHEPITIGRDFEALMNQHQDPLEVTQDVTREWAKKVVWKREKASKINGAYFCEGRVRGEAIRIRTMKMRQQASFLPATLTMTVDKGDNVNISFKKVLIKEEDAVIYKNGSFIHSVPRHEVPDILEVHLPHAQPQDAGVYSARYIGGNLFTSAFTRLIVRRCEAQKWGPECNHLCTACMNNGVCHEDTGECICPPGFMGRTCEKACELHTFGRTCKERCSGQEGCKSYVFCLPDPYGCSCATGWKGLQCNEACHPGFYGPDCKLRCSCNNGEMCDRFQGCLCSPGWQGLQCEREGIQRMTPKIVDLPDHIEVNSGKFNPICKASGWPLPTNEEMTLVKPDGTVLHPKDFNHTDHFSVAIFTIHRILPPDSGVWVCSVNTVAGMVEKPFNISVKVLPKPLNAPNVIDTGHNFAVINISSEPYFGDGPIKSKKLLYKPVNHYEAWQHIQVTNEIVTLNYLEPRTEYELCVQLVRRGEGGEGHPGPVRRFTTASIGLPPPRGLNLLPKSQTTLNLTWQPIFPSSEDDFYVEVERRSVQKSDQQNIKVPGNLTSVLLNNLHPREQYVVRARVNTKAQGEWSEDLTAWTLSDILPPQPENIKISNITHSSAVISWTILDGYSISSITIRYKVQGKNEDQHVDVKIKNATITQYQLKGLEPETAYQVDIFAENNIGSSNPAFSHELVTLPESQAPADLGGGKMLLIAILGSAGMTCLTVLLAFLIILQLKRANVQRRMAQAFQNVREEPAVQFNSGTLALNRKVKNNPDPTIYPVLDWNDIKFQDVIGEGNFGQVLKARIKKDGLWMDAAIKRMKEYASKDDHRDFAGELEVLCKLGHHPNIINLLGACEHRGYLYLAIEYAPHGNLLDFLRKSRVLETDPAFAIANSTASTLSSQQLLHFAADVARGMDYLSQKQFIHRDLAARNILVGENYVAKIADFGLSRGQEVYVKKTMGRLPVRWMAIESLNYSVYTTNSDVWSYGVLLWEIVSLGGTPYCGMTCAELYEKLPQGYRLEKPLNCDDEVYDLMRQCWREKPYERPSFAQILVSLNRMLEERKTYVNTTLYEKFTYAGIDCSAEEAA

[10] = system: Angiopoietin-1 receptor (Homo sapiens), Q02763 [Y1108F]; experiment: as §1; details: at 10 µM
Chain of Angiopoietin-1 receptor (Homo sapiens), Q02763 [Y1108F] (Q02763 whole entry Y1108F): as the sequence (Q02763 whole entry R849W) above, with W849R, Y1108F counted along it

[11] = target: Tyrosine-protein kinase Lyn (Homo sapiens, UniProt P07948); experiment: Selectivity interaction (KinomeScan (DiscoverX)) EUB0000695a LYN; details: at 100 nM
Chain of Tyrosine-protein kinase Lyn (P07948 2-512 limits assumed): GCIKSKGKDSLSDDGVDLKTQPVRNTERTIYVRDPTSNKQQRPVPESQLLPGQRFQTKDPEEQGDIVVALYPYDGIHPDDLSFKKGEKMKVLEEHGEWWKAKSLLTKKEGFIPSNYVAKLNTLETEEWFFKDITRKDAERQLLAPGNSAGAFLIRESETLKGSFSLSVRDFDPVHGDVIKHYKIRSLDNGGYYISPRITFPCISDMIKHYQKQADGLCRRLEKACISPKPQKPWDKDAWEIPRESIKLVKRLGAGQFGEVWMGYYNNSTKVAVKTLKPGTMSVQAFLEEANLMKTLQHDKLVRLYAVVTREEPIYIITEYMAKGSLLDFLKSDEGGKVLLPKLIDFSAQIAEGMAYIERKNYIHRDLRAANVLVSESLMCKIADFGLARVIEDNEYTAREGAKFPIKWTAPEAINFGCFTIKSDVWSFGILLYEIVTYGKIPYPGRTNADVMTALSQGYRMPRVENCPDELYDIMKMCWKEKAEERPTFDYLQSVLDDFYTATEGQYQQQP

Chain of Thyrotropin-releasing hormone receptor (Homo sapiens) (P34981 whole entry): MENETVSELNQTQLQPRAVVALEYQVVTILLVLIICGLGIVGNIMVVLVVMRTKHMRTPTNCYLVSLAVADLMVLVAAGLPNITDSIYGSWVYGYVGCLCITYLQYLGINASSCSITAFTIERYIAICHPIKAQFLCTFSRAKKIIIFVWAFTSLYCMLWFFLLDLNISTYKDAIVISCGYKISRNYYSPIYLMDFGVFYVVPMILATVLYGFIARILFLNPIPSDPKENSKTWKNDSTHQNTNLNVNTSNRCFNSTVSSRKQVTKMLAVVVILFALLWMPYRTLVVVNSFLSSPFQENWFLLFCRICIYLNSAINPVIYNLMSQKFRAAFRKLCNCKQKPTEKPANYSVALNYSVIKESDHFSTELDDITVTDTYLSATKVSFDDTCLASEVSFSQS

CC(=O)c1cc(-c2ccccc2OCC2CC2)c2ncccn12
% of control [1]: 94%

CN(C)C/C=C/C(=O)Nc1ccc(C(=O)N2CCCC(Nc3ncc(Cl)c(-c4c[nH]c5ccccc45)n3)C2)cc1 (stereo unspecified)
% of control [2]: 80%
% of control [3]: 84%

Nc1cnc(N2CCc3cc(S(=O)(=O)Nc4c(F)cc(Cl)cc4F)cc(N4CCCC4=O)c32)nc1 [TP-020n]
% of control [4]: 100%

O[C@H]1CC[C@H](Nc2ncc3nc(Nc4c(F)cc(F)cc4F)n([C@H]4CCOC4)c3n2)CC1
% of control [5]: 97%

N#Cc1cccc(-c2c[nH]c3ncnc(N4CCOCC4)c23)c1
% of inhibition [6]: 18%

COCC(=O)NC/C=C/c1ccc2ncnc(Nc3ccc(Oc4ccc(C)nc4)c(C)c3)c2c1 [CP-724714]
% of control [7]: 98%
% of control [8]: 100%

Cn1cc(-n2cnc3c(NCc4nc5cc(Cl)c(Cl)cc5[nH]4)nc(N4CCOCC4)nc32)cn1
% of inhibition [9]: -63.9%
% of inhibition [10]: -24.4%

Cc1cc(F)c(C(=O)Nc2cccc(-c3nncn3C(C)C)n2)cc1-n1cnc(C2CC2)c1
% of control [11]: 100%
